The values below come from publication PMC7552917, “Systematic exploration of different E3 ubiquitin ligases: an approach towards potent and selective CDK6 degraders” (Chemical Science, 2020).

Data set [1] in a line: elog D7.4 by chromatographic (HPLC) method. The format is physicochemical. The conditions noted are these: Polaris C18-A column, pH 7.4, read-out: elog D7.4 (experimental distribution coefficient at pH 7.4). The procedure:
Supplementary Information: Physical Chemistry
N. Molecular Descriptor Calculation […]
O. Physicochemical Measurements
The determination of the elog D7.4 values was performed by a chromatographic method according to […]
The column was a Polaris C18-A column (2 mm I.D., 50 mm length, 3 μm particle size) from Agilent Technologies. A linear mobile phase gradient was applied with […] TRIS buffer adjusted to pH 7.4 and MeCN. Therefore, the gradient was run from 5% […]
between the runs with a constant flow-rate of 0.8 ml/min and a temperature of 25 °C. The output wavelength of the detector was set to 269.5 nm. In order to calibrate the log D7.4 to the retention time, 6 different drugs with known log D7.4 were dissolved in DMSO and 10 µl were injected […]
Approximately 1 mg of the samples was dissolved in DMSO and 5 µl were injected. Analyses were conducted in duplicates. Subsequently, the mean retention times of the analytes were taken to calculate their log D7.4 values with aid of the calibration line.

The target of data set [2] is T1, CDK4 (Homo sapiens, UniProt P11802).
T1 construct: Percentage values are normalized to DMSO-treated MM.1S cells and the respective loading controls; endogenous in cells; host or cells: MM.1S (human multiple myeloma)
T1 sequence (P11802 whole entry): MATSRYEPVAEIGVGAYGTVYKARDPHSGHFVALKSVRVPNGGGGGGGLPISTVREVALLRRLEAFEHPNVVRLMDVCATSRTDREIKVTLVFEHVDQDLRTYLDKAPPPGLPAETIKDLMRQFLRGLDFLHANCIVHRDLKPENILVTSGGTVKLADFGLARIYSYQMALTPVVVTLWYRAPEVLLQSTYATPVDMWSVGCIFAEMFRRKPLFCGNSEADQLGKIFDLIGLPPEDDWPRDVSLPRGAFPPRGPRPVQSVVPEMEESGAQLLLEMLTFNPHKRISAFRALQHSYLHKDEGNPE
The experiment in a line: CDK4 degradation, western blot of MM.1S cells. The format is cell-based. The conditions noted are these: MM1.S; 0.1 μM, 16 h, MM.1S cells, normalized to DMSO (100%); read-out: D CDK4: remaining CDK4 levels. The text has this:
(§1) We determined the concentration of both kinases and CRBN, the latter in order to control the expression of the corresponding ligase. Since IMiDs, such as pomalidomide, cause the degradation of the lymphoid transcription factors Ikaros (IKZF1) and Aiolos (IKZF3) through the involvement of CRBN,[53],[54] this undesired effect was inspected. […] As further characteristics of CDK4/6d, the desired selectivity of CDK6 over CDK4 degradation and the unwanted influence on the IKZF1 concentration were determined. […] Next, we determined the concentration- and time-dependent activity of 11 (Fig. S2, ESI ^†).
(§2) Multiple myeloma, leukaemia, and murine cell lines:
(§3) After respective designated treatments, cells were washed with 1× PBS and lysed in IP lysis buffer (Pierce) containing HALT protease and phosphatase inhibitor cocktail (Thermo Scientific). Sodium dodecyl sulfate-polyacrylamide gel electrophoresis (SDS-PAGE) was performed with 5–20 µg of protein loaded per sample. Gel electrophoresis was carried out at a constant voltage. Proteins were transferred onto Immobilon-P transfer membranes (Millipore). Membranes were blocked with 5% milk in Tris Buffered Saline with 0.05% Tween 20 (TBS-T) followed by overnight incubation at 4 °C with shaking in primary antibodies diluted in 5% BSA in TBS-T. After incubation with respective secondary HRP-conjugated antibodies diluted in 5% milk in TBST, detection of proteins was performed using either WesternBright ECL HRP substrate or WesternBright Sirius HRP substrate (Advansta). Chemiluminescence was detected with ChemiDoc™ XRS+ System (Bio-Rad). For further detection of other proteins on the same membrane, membranes were subjected to incubation in Restore Western Blot Stripping Buffer, followed by re-blocking, and further probing of proteins was […]
A general note: A western blot detects proteins with antibodies after separation by electrophoresis.

In data set [3] the target is T2, CDK6 (Homo sapiens, UniProt Q00534).
T2 construct: Percentage values are normalized to DMSO-treated MM.1S cells and the respective loading controls; endogenous in cells; host or cells: MM.1S (human multiple myeloma)
T2 sequence (Q00534 whole entry): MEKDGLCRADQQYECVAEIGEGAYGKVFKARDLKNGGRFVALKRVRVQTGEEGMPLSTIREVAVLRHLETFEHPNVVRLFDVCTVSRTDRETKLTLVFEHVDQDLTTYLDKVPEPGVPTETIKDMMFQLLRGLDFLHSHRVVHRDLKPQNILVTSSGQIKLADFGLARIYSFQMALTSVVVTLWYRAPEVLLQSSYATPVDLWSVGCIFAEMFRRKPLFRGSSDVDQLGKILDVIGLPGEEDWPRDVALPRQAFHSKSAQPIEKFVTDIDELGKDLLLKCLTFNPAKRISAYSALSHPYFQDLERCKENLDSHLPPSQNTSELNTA
The experiment in a line: CDK6 degradation, western blot of MM.1S cells. The format is cell-based. The conditions noted are these: 16 h, MM.1S cells; for Selectivity ratio D CDK4/D CDK6 for the degradation of CDK6 over CDK4 / remaining activity at 0.1 µM: 0.1 μM.
From the text: as §1, §2, §3

Data set [4] deals with T3, IKZF1 (Homo sapiens, UniProt Q13422+Q96SW2).
T3 construct: endogenous in cells; host or cells: MM.1S (human multiple myeloma)
T3 sequence (Q13422 whole entry): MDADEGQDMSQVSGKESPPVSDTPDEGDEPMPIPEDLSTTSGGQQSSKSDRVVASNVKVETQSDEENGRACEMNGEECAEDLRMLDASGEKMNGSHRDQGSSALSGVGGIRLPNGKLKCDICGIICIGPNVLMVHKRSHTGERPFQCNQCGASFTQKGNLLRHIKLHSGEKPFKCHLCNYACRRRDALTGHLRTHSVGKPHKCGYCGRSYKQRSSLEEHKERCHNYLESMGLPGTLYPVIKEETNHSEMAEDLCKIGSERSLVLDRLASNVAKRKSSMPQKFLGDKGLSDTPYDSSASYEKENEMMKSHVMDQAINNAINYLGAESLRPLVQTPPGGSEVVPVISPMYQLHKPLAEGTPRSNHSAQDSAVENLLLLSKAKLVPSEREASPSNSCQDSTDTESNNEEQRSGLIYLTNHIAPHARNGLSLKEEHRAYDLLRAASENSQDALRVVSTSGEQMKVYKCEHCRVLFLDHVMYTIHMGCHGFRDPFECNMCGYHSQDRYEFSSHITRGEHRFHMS
T3 sequence (Q96SW2 whole entry): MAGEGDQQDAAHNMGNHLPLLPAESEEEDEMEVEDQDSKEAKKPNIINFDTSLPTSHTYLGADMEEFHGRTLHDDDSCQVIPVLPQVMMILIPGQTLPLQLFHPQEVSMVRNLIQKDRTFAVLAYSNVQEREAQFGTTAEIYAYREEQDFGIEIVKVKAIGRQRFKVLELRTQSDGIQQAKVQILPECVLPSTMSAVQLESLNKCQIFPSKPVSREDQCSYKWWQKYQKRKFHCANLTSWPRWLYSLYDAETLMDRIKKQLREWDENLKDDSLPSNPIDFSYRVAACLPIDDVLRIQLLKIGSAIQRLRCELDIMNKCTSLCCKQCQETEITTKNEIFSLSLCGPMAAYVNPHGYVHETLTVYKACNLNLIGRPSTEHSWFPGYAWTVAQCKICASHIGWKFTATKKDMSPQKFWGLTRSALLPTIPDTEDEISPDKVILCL
T3 sequence (Q16531 whole entry partner): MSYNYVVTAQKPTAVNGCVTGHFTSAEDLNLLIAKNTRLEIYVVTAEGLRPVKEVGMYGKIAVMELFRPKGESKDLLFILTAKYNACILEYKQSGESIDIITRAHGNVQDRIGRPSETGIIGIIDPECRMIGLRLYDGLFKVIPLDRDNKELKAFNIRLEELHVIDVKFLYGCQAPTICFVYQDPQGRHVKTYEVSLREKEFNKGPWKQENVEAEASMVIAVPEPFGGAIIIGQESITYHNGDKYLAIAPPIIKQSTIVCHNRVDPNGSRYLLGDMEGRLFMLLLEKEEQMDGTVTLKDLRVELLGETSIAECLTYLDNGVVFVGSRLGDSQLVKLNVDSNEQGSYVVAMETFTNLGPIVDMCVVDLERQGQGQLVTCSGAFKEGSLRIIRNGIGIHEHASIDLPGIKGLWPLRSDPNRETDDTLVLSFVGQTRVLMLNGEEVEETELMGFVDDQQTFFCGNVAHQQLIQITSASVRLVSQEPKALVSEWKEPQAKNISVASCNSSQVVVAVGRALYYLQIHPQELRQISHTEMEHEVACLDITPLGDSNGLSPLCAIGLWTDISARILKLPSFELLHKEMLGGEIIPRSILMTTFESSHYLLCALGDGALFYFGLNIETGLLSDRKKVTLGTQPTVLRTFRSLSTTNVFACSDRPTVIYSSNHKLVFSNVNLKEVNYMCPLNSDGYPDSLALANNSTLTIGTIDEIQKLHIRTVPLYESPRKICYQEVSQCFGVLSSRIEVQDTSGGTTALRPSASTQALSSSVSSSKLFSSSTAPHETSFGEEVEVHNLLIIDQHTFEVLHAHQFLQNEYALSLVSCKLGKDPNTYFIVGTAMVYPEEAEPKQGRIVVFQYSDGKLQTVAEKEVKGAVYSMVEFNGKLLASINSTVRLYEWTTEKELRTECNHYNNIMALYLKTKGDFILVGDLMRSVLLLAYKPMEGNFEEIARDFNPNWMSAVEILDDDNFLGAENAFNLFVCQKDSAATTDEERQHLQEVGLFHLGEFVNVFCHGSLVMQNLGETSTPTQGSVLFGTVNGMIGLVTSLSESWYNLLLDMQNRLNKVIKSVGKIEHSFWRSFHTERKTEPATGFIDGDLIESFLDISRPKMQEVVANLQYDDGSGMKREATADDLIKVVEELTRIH
The data set is described as follows: Neosubstrate IKZF1 degradation, western blot of MM.1S cells.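 Further: test concentration 0.1 µM.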 The format is cell-based. Conditions: MM1.S, 16 h, normalized to DMSO (100%), read-out: D IKZF1: remaining IKZF1 levels.
From the text: as §1, §2, §3

For data set [5], the target named is T4, CDK6 (Mus musculus, UniProt Q64261).
T4 construct: western blotting experiments with the murine myeloid 32D cell line and the murine pro-B-cell line Ba/F3; endogenous in cells; host or cells: 32D (murine myeloid) and Ba/F3 (murine pro-B)
T4 sequence (Q64261 whole entry): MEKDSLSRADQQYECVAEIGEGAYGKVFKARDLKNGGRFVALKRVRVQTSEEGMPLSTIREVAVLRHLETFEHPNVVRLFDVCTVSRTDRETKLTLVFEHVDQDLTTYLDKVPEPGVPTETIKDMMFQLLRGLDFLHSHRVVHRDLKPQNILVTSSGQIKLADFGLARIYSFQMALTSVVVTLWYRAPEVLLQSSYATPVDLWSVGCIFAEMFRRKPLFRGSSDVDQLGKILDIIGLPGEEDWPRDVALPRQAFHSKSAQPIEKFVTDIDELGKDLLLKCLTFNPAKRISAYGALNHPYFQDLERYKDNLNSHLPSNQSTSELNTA
The data set is described as follows: CDK6 degradation in murine cell lines 32D and Ba/F3, western blot. In kind it is cell-based. The conditions noted are these: 16 h.
From the text: When bound to IMiDs, human CRBN induces the recruitment of the neosubstrates IKZF1 and IKZF3 via a Val-388 interaction,[53],[55] leading to their subsequent proteasomal degradation. […] The previously reported BRD4 degrader dBET1 was capable of binding to murine CRBN and performed as an active PROTAC in murine cells.[57],[58] To test whether our CRBN-based degrader 11 maintains CDK6 degradation across different species, we performed western blotting experiments with the murine myeloid 32D cell line and the murine pro-B-cell line Ba/F3 (Fig. 2A). […] While the activity of BSJ-03-123 (8) was attenuated at this concentration, 11 mediated on-target effects at concentrations as low as 10 nM (Fig. 2B).
Fig. 2 CDK6 degradation by CRBN-based degrader 11 is conserved in murine cell lines. (A) Human cell lines MM.1S and murine cell lines 32D and Ba/F3 were treated with vehicle, pomalidomide (POM), CDK6-selective degrader BSJ-03-123 (8), negative control 21, or PROTAC 11 at 0.1 μM for 16 h; (B) CDK6-degradation is induced in a dose-dependent manner in murine cells. Murine cell lines 32D and Ba/F3 were treated with PROTAC 11 at indicated concentrations for 16 h.
as §2
After respective designated treatments, cells were washed with 1× PBS and lysed in IP lysis buffer (Pierce) containing HALT protease and phosphatase inhibitor cocktail (Thermo Scientific). Sodium dodecyl sulfate-polyacrylamide gel electrophoresis (SDS-PAGE) was performed with 5–20 µg of protein loaded per sample. Gel electrophoresis was carried out at a constant voltage. Proteins were transferred onto Immobilon-P transfer membranes (Millipore). Membranes were blocked with 5% milk in Tris Buffered Saline with 0.05% Tween 20 (TBS-T) followed by overnight incubation at 4 °C with shaking in primary antibodies diluted in 5% BSA in TBS-T. After incubation with respective secondary HRP-conjugated antibodies diluted in 5% milk in TBST, detection of proteins was performed using either WesternBright ECL HRP substrate or WesternBright Sirius HRP substrate (Advansta). Chemiluminescence was detected with ChemiDoc™ XRS+ System (Bio-Rad). For further detection of other proteins on the same membrane, membranes were subjected to incubation in Restore Western Blot Stripping Buffer, followed by re-blocking, and further probing of proteins was carried out. Quantification was performed using ImageJ (National Institutes of Health). […]

The subject of data set [6] is MDA-MB-231 cells. The data set is described as follows: Cell viability assay (CellTiter-Glo), MDA-MB-231 breast cancer cells. In kind it is cell-based, human. Conditions: 96 h. Here is the method: Breast cancer cell lines:
To access the compound effect on cell viability, cells were plated in 384-well tissue culture-treated plates (Greiner Bio One). Twenty-four hours later, tested compounds were added into culture to the desired concentrations. Cell viability was measured by using CellTiter-Glo® Luminescent Cell Viability Assay (Promega) at day 4 or day 7 post-treatment and normalized by non-treated controls. […]
Dose response curves were modeled and plotted by using GraphPad Prism software (GraphPad Software). Statistical analysis was performed using GraphPad Prism software (GraphPad Software).
Variance of biological replicates is represented as the standard error of the mean (SEM) or as the […]
(In general: In ATP-based viability assays light output follows the ATP content of the culture.)

Where [7] appears, read: MM1.S, normalized to DMSO (100%), read-out: D CDK6: remaining CDK6 levels.

On to `CC(=O)c1c(C)c2cnc(Nc3ccc(N4CCN(C(=O)CCCCCNc5cccc6c5C(=O)N(C5CCC(=O)NC5=O)C6=O)CC4)cn3)nc2n(C2CCCC2)c1=O` (centres unmarked) [compound 11], for which the chromatographic logD in data set [1] is 3.4. Also, the remaining activity at 0.1 µM in data set [2] was found to be 25%; in data set [3] (setting [7]), 11%; in data set [4] it was 1%. Also, the “Selectivity ratio D CDK4/D CDK6 for the degradation of CDK6 over CDK4” value (“Selectivity ratio D CDK4/D CDK6” for short) in data set [3] stood at 2.3. Also, in data set [5] (32D and Ba/F3 cells, 0.1 μM), the “CDK6 degradation in murine cells” value is recorded as “induced strong CDK6 degradation”. For the same compound, the “Lowest concentration mediating on-target effects (CDK6 degradation) in murine cells” value in data set [5] (32D and Ba/F3 cells) turned out to be 10 nM.

Regarding `CC(=O)c1c(C)c2cnc(Nc3ccc(N4CCN(C(=O)CCCCCOCCCCCCOCCCCCCNc5cccc6c5C(=O)N(C5CCC(=O)NC5=O)C6=O)CC4)cn3)nc2n(C2CCCC2)c1=O` (centres unmarked) [compound 17], the chromatographic logD in data set [1] turned out to be 5.2. Besides, the remaining activity at 0.1 µM in data set [2] came to 86%; in data set [3] (setting [7]) it was 51%; in data set [4], 18%. Besides, the “Selectivity ratio D CDK4/D CDK6” value in data set [3] is 1.7.

Take `CC(=O)c1c(C)c2cnc(Nc3ccc(N4CCN(C(=O)CCCCCOCCCCOCCCCOCCCCNc5cccc6c5C(=O)N(C5CCC(=O)NC5=O)C6=O)CC4)cn3)nc2n(C2CCCC2)c1=O` (centres unmarked) [compound 18]: the chromatographic logD in data set [1] turned out to be 4.4. The remaining activity at 0.1 µM in data set [2] was found to be 57%; in data set [3] (setting [7]) it was 17%; in data set [4], 5.9%. Moreover, the “Selectivity ratio D CDK4/D CDK6” value in data set [3] is listed as 3.4.

For the compound `CC(=O)c1c(C)c2cnc(Nc3ccc(N4CCN(C(=O)CCCCCOCCCCOCCCCOCCCCOCCCCCCNc5cccc6c5C(=O)N(C5CCC(=O)NC5=O)C6=O)CC4)cn3)nc2n(C2CCCC2)c1=O` (centres unmarked) [compound 19], the chromatographic logD in data set [1] was found to be 5.4. Besides, the figures for the remaining activity at 0.1 µM in data set [2], in data set [3] (setting [7]) and in data set [4] were more than 95%, 51% and 35%, respectively.

As to `CC(=O)c1c(C)c2cnc(Nc3ccc(N4CCN(C(=O)CCCCCOCCOCCOCCOCCOCCOCCCCCCNc5cccc6c5C(=O)N(C5CCC(=O)NC5=O)C6=O)CC4)cn3)nc2n(C2CCCC2)c1=O` (centres unmarked) [compound 20], in data set [1], the chromatographic logD was determined as 3.7. In addition, the remaining activity at 0.1 µM is 86% in data set [2], 16% in data set [3] (setting [7]) and 5.8% in data set [4]. The “Selectivity ratio D CDK4/D CDK6” value in data set [3] came to 5.4.

Consider `CC(=O)c1c(C)c2cnc(Nc3ccc(N4CCN(C(=O)CCCCCNc5cccc6c5C(=O)N(C5CCC(=O)N(C)C5=O)C6=O)CC4)cn3)nc2n(C2CCCC2)c1=O` (centres unmarked) [compound 21], for which the chromatographic logD in data set [1] amounted to 3.6. In addition, the remaining activity at 0.1 µM in data set [2] was 95%; in data set [3] (setting [7]) it was more than 95%; in data set [4], 93%.

Take `CC(=O)c1c(C)c2cnc(Nc3ccc(N4CCN(CCCCCCCC(=O)N[C@H](C(=O)N5C[C@H](O)C[C@H]5C(=O)NCc5ccc(-c6scnc6C)cc5)C(C)(C)C)CC4)cn3)nc2n(C2CCCC2)c1=O` [compound 22]: the chromatographic logD in data set [1] was 3.3. Besides, the results for the remaining activity at 0.1 µM in data set [2] and in data set [3] (setting [7]) were 12% and 2.9%, respectively. In addition, in data set [3], the “Selectivity ratio D CDK4/D CDK6” value is 4.1. Moreover, the remaining activity at 1 µM in data set [3] (MM1.S, 1 μM, normalized to DMSO (100%), read-out: D CDK6: remaining CDK6 levels) turned out to be 4.1%. The “CDK6 degradation in murine cells” value in data set [5] (Ba/F3 and 32D cells, 1 μM) is “pronounced CDK6 degradation”.

As to `CC(=O)c1c(C)c2cnc(Nc3ccc(N4CCN(CCCCCCCC(=O)N[C@H](C(=O)N5C[C@@H](O)C[C@H]5C(=O)NCc5ccc(-c6scnc6C)cc5)C(C)(C)C)CC4)cn3)nc2n(C2CCCC2)c1=O` [compound 26], in data set [1], the chromatographic logD turned out to be 3.2. The remaining activity at 0.1 µM in data set [2] and in data set [3] (setting [7]) was more than 95% each time. Besides, the “Inhibitory activity on cell viability relative to palbociclib” value in data set [6] is on record as “inhibitory activity comparable to palbociclib”.

Turning to `CC(=O)c1c(C)c2cnc(Nc3ccc(N4CCN(CCOCCOCCOc5cc(-c6scnc6C)ccc5CNC(=O)[C@@H]5C[C@H](O)CN5C(=O)[C@H](C(C)C)N5Cc6ccccc6C5=O)CC4)cn3)nc2n(C2CCCC2)c1=O` [compound 32], the chromatographic logD in data set [1] was 3. Moreover, the remaining activity at 0.1 µM is 82% in data set [2] and more than 95% in data set [3] (setting [7]). The “Inhibitory activity on cell viability relative to palbociclib” value in data set [6] was “inhibitory activity comparable to palbociclib”.
